Reference: US9180187B2, “Medicament for treating and/or preventing cancer” (TORAY INDUSTRIES, INC., priority 2010, dated 2015)
Where two headings read alike, the source gives them in different places.

Experiments:
[1] = test system: MCF-7 human breast cancer cell line; test: 50% inhibitory concentration of antitumor agents, living cell count with trypan blue; type: cell-based; conditions: MCF7, 48 h, read-out: 50% inhibitory concentration of antitumor agents against MCF-7
Method: The cell line was prepared to 1×10^5 cells/ml and then cultured on a 6-well plate under conditions of 37° C. and 5% CO2 for one day. Then, the cell was treated with each antitumor agent at final concentrations of 0.001 μM, 0.01 μM, 0.1 μM, 1.0 μM, and 10 μM, followed by 2-days culture under conditions of 37° C. and 5% CO2. After removal of the culture medium, the cell was washed twice with PBS(−), to which 0.25% Trypsin-EDTA was then added in order to detach the cell from the plate. The thus detached cell was suspended with PBS(−) to a volume of 100 to which 10 μl of 0.4% trypan blue stock solution was then added, and the mixture was measured for counts of living cells using a hemocytometer. The rate of living cells in case that the cell was treated with each antitumor agent (i.e., a chemotherapeutic) was calculated, wherein the number of living cells in case that the cell was not treated with each antitumor agent was designated at 100%. 50% inhibitory concentration was roughly estimated based on the obtained values, and each antitumor agent was prepared to have a concentration around the determined 50% inhibitory concentration, and thereafter procedures similar to the above were further performed in order to calculate a more specific 50% inhibitory concentration.
MCF-7 cell line was prepared to 1×10^5 cells/mL, and then cultured on a 6-well plate under conditions of 37° C. and 5% CO2 for one day. […] After removal of the culture medium, the cell was washed with PBS(−) twice, to which 0.25% Trypsin-EDTA was added in order to detach the cell from the plate. The detached cell was suspended in PBS(−) to a volume of 100 μl, to which 10 μl of 0.4% trypan blue stock solution was further added. The mixture was measured for counts of living cells using a hemocytometer. […] The IC50 values of respective antitumor agents in each type of cancer cells were calculated by using the same procedures.

[2] = test system: human breast cancer cell line MDA-MB-157; test: ADCC activity, chromium-51 release; type: cell-based; conditions: 1 μg antibody, mouse lymphocytes 2×10^5 cells, 10^3 target cells, 4 hours
Method: The above-selected anti-CAPRIN-1 monoclonal antibodies #1 to #11 were evaluated for their cytotoxic activities against cancer cells (ADCC activity). Hybridomas producing the monoclonal antibodies #1 to #11 were each cultured using hybridoma SFM medium (Invitrogen). The thus obtained supernatant was purified using Hitrap ProteinA Sepharose FF (GE HealthCare), replaced with PBS(−), and then filtered through 0.22 μm filter (Millipore). The obtained filtrates were used as antibodies for assay. The human breast cancer cell line MDA-MB-157 (10^6 cells) was collected in a 50-ml centrifuge tube, to which 100 μCi chromium(Cr)-51 was then added, and incubated at 37° C. for 2 hours. Subsequently, the cells were washed 3 times with RPMI1640 medium containing 10% FBS, and then dispensed into each well of a 96-well V-bottom plate at 10^3 cells per well. The thus obtained cells are used as target cell. The above purified antibodies (1 μg each) were added to the cells. Separately, mouse lymphocytes separated from the mouse spleen were further added (2×10^5 cells) and then cultured under conditions of 37° C. and 5% CO2 for 4 hours. After culture, the amount of chromium(Cr)-51 released from cytotoxically impaired tumor cells in a culture supernatant was measured, so that the ADCC activity of each anti-CAPRIN-1 antibody against cancer cells was calculated. […] On the other hand, similar procedures were performed using the monoclonal antibodies (which were prepared in Example 2) reactive with the CAPRIN-1 protein itself, but not reactive with the surface of cancer cells, no cytotoxic activity was observed (see FIG. 1). […] Similarly, the anti-CAPRIN-1 antibodies were examined for ADCC activity against other human cancer cell lines including glioma cell lines (T98G and U373), lung cancer cell lines (A549 and QG56), renal cancer cell lines (Caki-1 and ACHN), a uterine cervix cancer cell line (SW756), a bladder cancer cell line (T24), an esophageal cancer cell line (KYSE180), gastric cancer cell lines (MNK28 and MNK45), a colorectal cancer cell line (SW480), a leukemia cell line (AML5), and a lymphoma cell line (Ramos).

[3] = test system: MCF-7 human breast cancer cell line; test: In vivo combination therapy in tumor-bearing nude mice transplanted with MCF-7; conditions: experimental section 1 (anti-CAPRIN-1 antibody = #2, 5 mg/kg i.p.), day 26, mouse PBMC given to all groups
Method: IgG2b (R&D systems, catalog No. MAB11291)) were administered in combination, a group to which an antitumor agent and anti-CAPRIN-1 monoclonal antibody were administered in combination, and a group to which control (PBS(−) was administered. In addition, mouse PBMC was administered to all the administration groups. […] PBMC separated from Balb/c mouse spleen was intravenously administered to each mouse at 1×10^7 cells/0.2 mL (RPMI1640) on days 0, 8, and 15 after the start of the experiment. […] PBMC separated from Balb/c mouse spleen was intravenously administered to each mouse at 1×10^7 cells/0.2 mL (RPMI1640) on days 0, 8, and 15 after the start of the experiment. Paclitaxel was intraperitoneally administered to each of 5 tumor-bearing mice at 15 mg/kg/shot on days 0 and 3 after the start of the experiment. PBMC separated from Balb/c mouse spleen was intravenously administered to each mouse at 1×10^7 cells/0.2 mL (RPMI1640) on days 0, 8, and 15 after the start of the experiment. Docetaxel was intraperitoneally administered to each of 5 tumor-bearing mice at 10 mg/kg/shot on days 0 and 3 after the start of the experiment. PBMC separated from Balb/c mouse spleen was intravenously administered to each mouse at 1×10^7 cells/0.2 mL (RPMI1640) on days 0, 8, and 15 after the start of the experiment. […]

[4] = MCF-7, 2-days culture with agent, living cells counted with trypan blue

| Molecule | IC50 [1, 4] | ADCC activity (cytotoxic activity) against MDA-MB-157 [2] | also measured |
| --- | --- | --- | --- |
| O=P1(N(CCCl)CCCl)NCCCO1 (centres unmarked) [Cyclophosphamide, cyclophosphamide] | – | – | IC50 [1]: 30 nM |
| CC(=O)O[C@@]12CO[C@@H]1C[C@H](O)[C@@]1(C)C(=O)[C@H](O)C3=C(C)[C@@H](OC(=O)[C@H](O)[C@@H](NC(=O)OC(C)(C)C)c4ccccc4)C[C@@](O)([C@@H](OC(=O)c4ccccc4)[C@H]21)C3(C)C [Docetaxel, docetaxel] | 0.1 nM | – | – |
| CC(=O)O[C@H]1C(=O)[C@@]2(C)[C@H]([C@H](OC(=O)c3ccccc3)[C@]3(O)C[C@H](OC(=O)[C@H](O)[C@@H](NC(=O)c4ccccc4)c4ccccc4)C(C)=C1C3(C)C)[C@]1(OC(C)=O)CO[C@@H]1C[C@@H]2O [Paclitaxel, paclitaxel] | 10 nM | – | – |
| CCC1=C[C@@H]2CN(C1)Cc1c([nH]c3ccccc13)[C@@](C(=O)OC)(c1cc3c(cc1OC)N(C)[C@H]1[C@@](O)(C(=O)OC)[C@H](OC(C)=O)[C@]4(CC)C=CCN5CC[C@]31[C@@H]54)C2 [Vinorelbine, vinorelbine] | 20 nM | – | – |
| monoclonal antibody #1: mouse anti-CAPRIN-1 monoclonal antibody; heavy chain variable region SEQ ID NO: 43, light chain variable region SEQ ID NO: 47 (antibody, listed as Mus musculus, V domains shown) VH: MEWSGVFIFLLSGTAGVLSEVQLHQFGAELVKPGASVKISCKASGYTFTDYNMDWVKQSHGKSLEWIGDINPNYDSTSYNQKFKGKATLTVDKSSSTAYMELRSLTSEDTAVYYCARSRSYDYEGFAYWGQGTLVTVSAAKTTPPSVY VL: MSVLTQVLGLLLLWLTGARCDIQMTQSPASLSASVGETVTITCRASGNIHNYLAWYQQKQGKSPQLLVYNAKTLADGVPSRFSGSGSGTQYSLKINSLQPEDFGSYYCQHFWSTLTFGAGTKLELKRADAAPTVSNPYD | – | 22.1% | – |
| monoclonal antibody #2: mouse anti-CAPRIN-1 monoclonal antibody; heavy chain variable region SEQ ID NO: 43, light chain variable region SEQ ID NO: 53 (antibody, listed as Mus musculus, V domains shown) VH: MEWSGVFIFLLSGTAGVLSEVQLHQFGAELVKPGASVKISCKASGYTFTDYNMDWVKQSHGKSLEWIGDINPNYDSTSYNQKFKGKATLTVDKSSSTAYMELRSLTSEDTAVYYCARSRSYDYEGFAYWGQGTLVTVSAAKTTPPSVY VL: AVLRCSRGLLVIWISDIQLTQSPSSLAVTAGEKVTMSCKSSQSLLWSVNQKNYLSWYQQKQRQPPKLLIYGASIRESWVPDRFTGSGSGTDFTLTISNVHAEDLAVYYCQHNHGSFLPSRSEQVPSWRSNNR | – | 29.1% | tumor volume relative to PBS(−) control group designated at 100% [3]: about 56% |
| monoclonal antibody #6: mouse anti-CAPRIN-1 monoclonal antibody; heavy chain variable region SEQ ID NO: 73, light chain variable region SEQ ID NO: 77 (antibody, listed as Mus musculus, V domains shown) VH: DILQASGYSFTGYTMNWVKQSHGKNLEWIGLINPYNGGTSYNQKFKGKATLTVDKSSSTAYMELLSLTSEDSAVYYCARWGVWSAMDYWGQGTTVTVSSK VL: DRVSITCKASQNVRTAVAWYQQKPRQSPKALIYLASNRDTGLPDRFPGRGSGTDFTLNITNVQSEDLEDYFCLQHCNYPNEFRGCTKVPI | – | 30.2% | – |
